Values joined by “and” are separate entries in the source; they are usually repeats but may differ in a detail not shown here. Equal entries are not always repeated.
System: 156681-154-R-J1-PDC complex spheroid viability
Assay: Anticancer human tumor 156681-154-R-J1-PDC patient-derived melanoma cell line growth inhibition [CLK]
Settings: for viability, T/C: stronger effect = lower value; active means viability on the fitted dose curve at most 10% of control; inactive means the rest
Source text: A high-throughput screen of multi-cell type tumor spheroids was designed to identify active combinations of […] and targeted small molecules. Complex spheroids include a stromal component modeled by human endothelial cells (HUVEC) and fibroblasts modeled by human mesenchymal stem cells (MSCs). The concentration ranges selected for each drug and investigational agent were based upon clinically achievable concentrations if the clinical Cmax of the agent was known.
Compounds. The drugs and investigational agents: cirtuvivint (SM08502; NSC835563), CC-671 (NSC850746), vemurafenib (NSC761431), tapotoclax (NSC804041), sotorasib (NSC818433), adagrasib (NSC831453), MRTX-1133 (NSC836407), BAY2416964 (NSC825713), copanlisib (NSC816437), inavolisib (NSC800729), abemaciclib (NSC768073), osimertinib (NSC779217), entinostat (NSC756642), eltanexor (KPT-8602, NSC794443), venetoclax (NSC766270), ceralasertib (NSC777638), bortezomib (NSC756655), olaparib (NSC753686), talazoparib (NSC767125), alisertib (NSC759677), peposertib (NSC802822), gemcitabine (NSC613327), 5-fluorouracil (NSC19893), SN-38 (NSC673596), oxaliplatin (NSC266046), paclitaxel (NSC125973), and doxorubicin (NSC123127), were obtained from the National Cancer Institute (NCI) Developmental Therapeutics Program Chemical Repository. The FDA-approved anticancer drug set is available from the Developmental Therapeutics Program at https://dtp.cancer.gov/organization/dscb/obtaining/available plates.htm. […] The stock solutions were prepared in dimethyl sulfoxide (DMSO, Sigma-Aldrich, St. Louis, MO, cat. D2650), except for the platinum complexes which were prepared in saline (Quality Biological, Gaithersburg, MD, cat. 114-055-101), at 800-fold the tested concentration and stored at -70 degrees C prior to their use. All drugs and investigational agents were tested over a range starting from a high concentration at or near the clinical Cmax and decreasing in half-log increments. If the clinical Cmax for an agent had not been determined, the highest concentration tested was 10 microM.
Cell Culture. All cells were maintained in an incubator at 37 degrees C and 5% CO2 with 95% humidity. The PDC lines were cultured according to standard operating procedures established by the NCI PDMR. Briefly, all PDCs were thawed and cultured in Matrigel-coated flasks prepared with a working solution of 1X Ham's F-12 nutrient mix, without supplementation (Invitrogen, Waltham, MA, cat. 11765054), 100 U/mL penicillin-streptomycin (Invitrogen, cat. 15140122), and 2.5% Matrigel (Corning Inc., Corning, NY, cat. 354248) for the first three passages. The 947758-054-R-J2-PDC line was cultured in 6B/Colon 1A media, which includes advanced DMEM/F-12 (Thermo Fisher Scientific, cat. 12634028), 10 mM HEPES (Thermo Fisher Scientific, cat. 15630080), 1X GlutaMAX supplement (Thermo Fisher Scientific, cat. 35050061), 0.1 mg/mL primocin (InvivoGen, cat. ant-pm-2), 10% defined fetal bovine serum, heat inactivated (HyClone Laboratories Inc., cat. SH30070.03HI), 1.25 mM N-Acetyl-L-cysteine (Sigma-Aldrich, cat. A9165), 10 mM nicotinamide (Sigma-Aldrich, cat. N0636), 1X B-27 supplement (Thermo Fisher Scientific, cat. 17504044), 1X N-2 supplement (Thermo Fisher Scientific, cat. 17502048), and 10 microM Y-27632 dihydrochloride (Tocris Bioscience, cat. 1254). The 876862-298-R-J1-PDC was cultured in 6E media, which includes all 6B/Colon 1A media components plus 50% L-WRN conditioned media (ATCC, cat. CRL-3276), 50 ng/mL recombinant human EGF recombinant protein (hEGF; Thermo Fisher Scientific, cat. PHG0311), 10 ng/mL recombinant human fibroblast growth factor 10 (hGFG-10; PeproTech, cat. 100-26), 1 ng/mL recombinant human fibroblast growth factor 2 (hFGF-2; PeproTech, cat. 100-18B), and 1 µM prostaglandin E2 (PGE2; Tocris, cat. 2296). The 227483-062-R1-J1-PDC line was cultured in Panc media, containing all 6E components except hFGF-2, with the addition of 500 nM SB-431542 (Selleckchem, cat. S1067) and 10 nM gastrin (Tocris, cat. 3006). […]
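Further: spheroids exposed to the agents for seven days.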

COC1C=CCC(C)C(C)S(=O)(=O)NC(=O)c2ccc3c(c2)N(CC2CCC21)CC1(CCCc2cc(Cl)ccc21)CO3 (centres undefined)
1330 nM and 861 nM: IC50 (curve of compound)
inactive: viability, T/C (compound 0.0316 µM) 86.6% and 107% | viability, T/C (compound 0.1 µM) 85.4% and 73.3% | viability, T/C (compound 0.316 µM) 86.8% and 70.1% | viability, T/C (compound 1 µM) 61.2% and 61.9% | viability, T/C (compound 3.16 µM) 14.6% and 10.7%
active: viability, T/C (compound 10 µM) 1.35% and 1.31%

C#Cc1c(F)ccc2cc(O)cc(-c3ncc4c(N5CC6CCC(C5)N6)nc(OCC56CCCN5CC(F)C6)nc4c3F)c12 (centres undefined) + CN1CCN(c2cc(C(=O)Nc3cc4cc(-c5cnn(C)c5)ccc4cn3)ccn2)CC1
inactive: viability, T/C (second compound 0.0316 µM, first compound 0.0316 µM) 100% | viability, T/C (second compound 0.0316 µM, first compound 0.1 µM) 81.5% | viability, T/C (second compound 0.0316 µM, first compound 0.316 µM) 97% | viability, T/C (second compound 0.0316 µM, first compound 1 µM) 120% | viability, T/C (second compound 0.0316 µM, first compound 3.16 µM) 98.2% | viability, T/C (second compound 0.0316 µM, first compound 10 µM) 119% | viability, T/C (second compound 0.1 µM, first compound 0.0316 µM) 84.4% | viability, T/C (second compound 0.1 µM, first compound 0.1 µM) 86.7% | viability, T/C (second compound 0.1 µM, first compound 0.316 µM) 92.6% | viability, T/C (second compound 0.1 µM, first compound 1 µM) 100% | viability, T/C (second compound 0.1 µM, first compound 3.16 µM) 95.8% | viability, T/C (second compound 0.1 µM, first compound 10 µM) 97% | viability, T/C (second compound 0.316 µM, first compound 0.0316 µM) 29% | viability, T/C (second compound 0.316 µM, first compound 0.1 µM) 22.5% | viability, T/C (second compound 0.316 µM, first compound 0.316 µM) 25.9% | viability, T/C (second compound 0.316 µM, first compound 1 µM) 26.7% | viability, T/C (second compound 0.316 µM, first compound 3.16 µM) 31.9% | viability, T/C (second compound 0.316 µM, first compound 10 µM) 20.6%
active: viability, T/C (second compound 1 µM, first compound 0.0316 µM) 0.31% | viability, T/C (second compound 1 µM, first compound 0.1 µM) 2.37% | viability, T/C (second compound 1 µM, first compound 0.316 µM) 0.28% | viability, T/C (second compound 1 µM, first compound 1 µM) 0.23% | viability, T/C (second compound 1 µM, first compound 3.16 µM) 0.15% | viability, T/C (second compound 1 µM, first compound 10 µM) 1.07% | viability, T/C (second compound 3.16 µM, first compound 0.0316 µM) 0.15% | viability, T/C (second compound 3.16 µM, first compound 0.1 µM) 0.39% | viability, T/C (second compound 3.16 µM, first compound 0.316 µM) 0.11% | viability, T/C (second compound 3.16 µM, first compound 1 µM) 0.49% | viability, T/C (second compound 3.16 µM, first compound 3.16 µM) 0.15% | viability, T/C (second compound 3.16 µM, first compound 10 µM) 0.12% | viability, T/C (second compound 10 µM, first compound 0.0316 µM) 0.19% | viability, T/C (second compound 10 µM, first compound 0.1 µM) 2.4% | viability, T/C (second compound 10 µM, first compound 0.316 µM) 0.37% | viability, T/C (second compound 10 µM, first compound 1 µM) 0.17% | viability, T/C (second compound 10 µM, first compound 3.16 µM) 0.18% | viability, T/C (second compound 10 µM, first compound 10 µM) 0.17%
< 31.6 nM: IC50 (curve of first compound, second compound 0.316 µM) | IC50 (curve of first compound, second compound 1 µM) | IC50 (curve of first compound, second compound 3.16 µM) | IC50 (curve of first compound, second compound 10 µM)
> 10000 nM: IC50 (curve of first compound, second compound 0.0316 µM) | IC50 (curve of first compound, second compound 0.1 µM)

Source: PubChem BioAssay AID2060627 (Molecular Pharmacology Branch, DTP, NCI, 2025)
